Assay results taken from patent publication US11407811B2, “Fusion protein, preparation method therefor and use thereof” (JIANGSU RONGTAI BIOTECH CO., LTD., priority 2017, dated 2022).

Assays:
[1] = test system: melanoma cell line B16F10; experiment: MTT assay, proliferation of melanoma cell B16F10; assay type: cell-based; conditions: dose 5 μg/mL
Protocol: (§1) The MTT assay was used to detect the inhibitory effect of the integrin blocker fusion protein obtained in Example 1 on the proliferation of various tumor cells, including melanoma cell B16F10, gastric cancer cell MGC-803, lung cancer cell A549, liver cancer cell Hep-G2, breast cancer cell MDA-MB-231, colon cancer cell HCT-116, human glioma U87, and cervical cancer cell Hela.
(§2) The tumor cells were cultured in a 5% CO2 incubator at 37° C. to a density of 90% or more, and collected by trypsinization. The cells were resuspended in the culture liquid and counted under a microscope. The cell concentration was adjusted to 3.0×10^4 cells/mL. The cell suspension was inoculated into a 96-well plate at 100 μL per well and cultured overnight in a 5% CO2 incubator at 37° C. […] After the cells were fully adhered, each dilution was added to a 96-well plate at 100 μL per well, respectively. […] 20 μL of 5 mg/mL MTT was added to each well of a 96-well plate, and incubation was continued for 4 hours. The medium was aspirated and 100 μL of DMSO per well were added to dissolve. The absorbance was measured at 570 nm with a microplate reader with a reference wavelength of 630 nm, and the proliferation inhibition (PI) was calculated. The formula is as follows: […]
(§3) where Ntest is the OD value of the test group and Ncontrol is the OD value of the blank control group.
(§4) The test was repeated 5 times independently. The results obtained from the test were calculated as mean±SD, and statistical t-test was performed. P<0.05 was considered as a significant difference, and P<0.01 was considered as an extremely significant difference.

[2] = test system: gastric cancer cell MGC-803; experiment: MTT assay, proliferation of gastric cancer cell MGC-803; assay type: cell-based; conditions: dose 5 μg/mL
Protocol: as §1, §2, §3, §4

lung cancer cell A549 = experiment: MTT assay, proliferation of lung cancer cell A549; assay type: cell-based; conditions: dose 5 μg/mL
Protocol: as §1, §2, §3, §4

liver cancer cell Hep-G2 = experiment: MTT assay, proliferation of liver cancer cell Hep-G2; assay type: cell-based; conditions: dose 5 μg/mL
Protocol: as §1, §2, §3, §4

[3] = test system: breast cancer cell MDA-MB-231; experiment: MTT assay, proliferation of breast cancer cell MDA-MB-231; assay type: cell-based; conditions: dose 5 μg/mL
Protocol: as §1, §2, §3, §4

[4] = test system: colon cancer cells HCT-116; experiment: MTT assay, proliferation of colon cancer cell HCT-116; assay type: cell-based; conditions: dose 5 μg/mL
Protocol: as §1, §2, §3, §4

human glioma U87 = experiment: MTT assay, proliferation of human glioma U87; assay type: cell-based; conditions: dose 5 μg/mL
Protocol: as §1, §2, §3, §4

[5] = test system: cervical cancer cell Hela; experiment: MTT assay, proliferation of cervical cancer cell Hela; assay type: cell-based; conditions: dose 5 μg/mL
Protocol: as §1, §2, §3, §4

[6] = test system: human retinal vascular endothelial cell (HRCEC); experiment: MTT assay, proliferation of human retinal vascular endothelial cell (HRCEC); assay type: cell-based; conditions: 5 μg/mL (positive control), 48 hours
Protocol: The activity of the integrin blocker polypeptide to inhibit proliferation of human retinal vascular endothelial cells was examined by MTT assay. HRCEC cells were cultured in a 5% CO2 incubator at 37° C. to a density of 90% or more, and then collected by trypsinization. The cells were resuspended in the culture liquid and counted under a microscope. The cell concentration was adjusted to 3.0×10^4 cells/mL. The cell suspension was inoculated into a 96-well plate at 100 μL per well and cultured in a 5% CO2 incubator at 37° C. overnight. […] After the cells were fully adhered, each dilution was added to a 96-well plate at 100 μL per well, respectively. […] 20 μL of 5 mg/mL MTT was added to each well of a 96-well plate, and incubation was continued for 4 hours. The medium was aspirated and 100 μL of DMSO was added per well for dissolution. The absorbance was measured at 570 nm with a microplate reader with a reference wavelength of 630 nm, and the proliferation inhibition (PI) was calculated. The formula was as follows: […]
as §3
The test was repeated 5 times independently. The results obtained from the test were calculated as mean±SD, and statistical t-test was performed. P<0.05 was considered as significant difference, and P<0.01 was considered as extremely significant difference.

[7] = test system: human umbilical vein endothelial cells (HUVEC); experiment: Three-dimensional transwell assay, migration of HUVEC; assay type: cell-based; conditions: dose 8.0 · 10^−6 μg/mL
Protocol: Human umbilical vein endothelial cells (HUVECs) were cultured with endothelial cell culture fluid containing 5% fetal bovine serum and 1×ECGS in a 5% CO2 incubator at 37° C., to a confluence of 90% or more, and then inhibitory effects of fusion protein I, protein II, protein III, protein IV, and protein V on migration of endothelial cells were detected by transwell assay, in which only endothelial cells HUVEC of passage 2 to 8 were used, and the specific operation was as follows.
(1) 10 mg/mL Matrigel was diluted with a DMEM medium at a ratio of 1:4, coated on a transwell chamber membrane, and air-dried at room temperature.
(2) HUVEC cells cultured to logarithmic phase were digested with 0.2% EDTA, collected, washed twice with PBS, followed by resuspended in an endothelial cell culture liquid containing 0.1% BSA, counted under a microscope, and the cell concentration was adjusted to 1×10^5 cells/mL;
(3) Test solutions for each group were formulated and diluted to 100 μL with a cell culture liquid containing 0.1% BSA;
Groups were divided as follows:
Blank control group: a cell culture liquid containing no drug;
Endostar group: 5 mg/mL Endostar solution diluted to a predetermined concentration with a cell culture liquid containing no drug; […]
(4) The cells were inoculated into a transwell chamber at 100 μL per well, and test solutions for each group were added to the chamber. To a 24-well plate, 0.6 mL of endothelial cell culture liquid containing 5% fetal bovine serum and 1×ECGS was added to stimulate cell migration, and incubated at 5% CO2 for 24 h at 37° C.
(5) The culture liquid in the well was discarded. The cells were fixed with 90% alcohol at room temperature for 30 min, stained with 0.1% crystal violet for 10 min at room temperature, and rinsed with water. Un-migrated cells in the upper layer were gently wiped off by a cotton swab. The observation was carried out under microscope and four fields of view were selected for taking photos and counting. The migration inhibition (MI) was calculated according to the formula: […]
where Ntest is the migration cell number in the test group, and Ncontrol is the migration cell number in the blank control group.
The test was repeated 3 times independently. The results obtained from the test were calculated as mean±SD, and statistical t-test was performed. P<0.05 was considered as a significant difference, and P<0.01 was considered as an extremely significant difference.

[8] = test system: adjuvant arthritis in rat; experiment: Chronic inflammation of adjuvant arthritis in rat; assay type: in vivo; set-up: key to Clinical score Whole body: sum of hind/fore foot, ear, nose, tail scores; full score 8
Protocol: 80 SPF SD rats were randomly divided into 8 groups. Rats in each group were lightly anesthetized with ether. Then, 0.1 mL of complete Freund's adjuvant containing inactivated Mycobacterium tuberculosis was injected subcutaneously into the left hind foot of the rats. Primary arthritis occurred in the left hind foot of the rat, and at about 13 days post-modeling, secondary arthritis occurred in the right hind foot. A blank control group was injected with an equal volume of physiological saline. The drug was administered 13 days after modeling. A methotrexate group was administered by injection every 5 days for 15 days, 4 times in total; the fusion protein I, protein II, protein III, protein IV, and protein V at high, medium and low doses (128 mg/kg, 32 mg/kg, 8 mg/kg) were administered by injection every 5 days for 15 days.
Using a foot volume measuring method, a marker was made with a fat-soluble marker at the left and right posterior ankle joint of each rat, and the left and right hind feet of the animal were respectively immersed in the volume measuring device. The immersion depth was bounded by the marker, and the reading value at the scale pipette of the device was the initial volume of the animal's left and right hind feet.
The day of modeling was considered as the 0th day and recorded as d0. The volume of the left hind foot (modeling foot) was measured from the first day d1 after modeling every 2 days. When the swelling occurred (i.e., secondary arthritis occurred) at the contralateral non-inflammatory foot (right hind foot), the administration was started. The volume of the left and right hind feet was measured every 2 days, and the degree of primary and secondary toe swelling was determined, which was calculated as follows:
Primary toe swelling (mL)=left hind foot volume on the day of measurement-initial volume of left hind foot
Secondary toe swelling (mL)=right hind foot volume on the day of measurement-initial volume of right hind foot 2. Clinical score
Systemic score: the systemic score was taken every 2 days after the onset of secondary inflammation.
Hind foot: no swelling=0 score, one hind foot swelling=1 score, two hind feet swelling=2 scores;
Forefoot: no swelling=0 score, one forefoot swelling=1 score, two forefeet swelling=2 scores;
Ear: no redness and nodules=0 score, redness or nodules in one ear=1 score, redness and nodules in both ears=2 scores;
Nose: no swelling=0 score, obvious swelling=1 score;
Tail: no nodules=0 score, with nodules=1 score; full score was 8 scores.
Arthritis index score: the arthritis index score was performed every 2 days after the onset of secondary inflammation.
The initial body weight of each group of rats was weighed before modeling. The body weight was measured every 2 days from d1 after modeling, from which the initial body weight was subtracted to obtain the weight gain of each group of rats.

[9] = test system: xylene-induced ear swelling in mice; experiment: Xylene-induced ear swelling in mice; assay type: in vivo; conditions: 200 mg/kg (positive control)
Protocol: 80 Kunming mice were divided into 8 groups with 10 mice for each group and numbered. A physiological saline group was used as a blank control group, an aspirin group (200 mg/kg) was used as a positive control group, and fusion protein I, protein II, protein III, protein IV and protein V at high, medium and low doses (128, 32, 8 mg/kg) were used as experimental groups. Mice were administered once by injection, while EDSM needed to be administered twice a day for 5 consecutive days. The blank control group was given an equal volume of physiological saline. After the fifth day, 0.05 mL of xylene was applied to both sides of the right ears of the mice to induce inflammation, and the left ears were not applied and were normal ears. After 2 h, the mice were sacrificed by dislocation, and the ears were cut along the auricle. Ear pieces were taken with a puncher and weighed, and the swelling degree and swelling rate were calculated. Swelling degree=right ear piece weight-left ear piece weight, swelling rate=(swelling degree/left ear piece weight)×100%.

CC(=O)O[C@H]1C(=O)[C@@]2(C)[C@H]([C@H](OC(=O)c3ccccc3)[C@]3(O)C[C@H](OC(=O)[C@H](O)[C@@H](NC(=O)c4ccccc4)c4ccccc4)C(C)=C1C3(C)C)[C@]1(OC(C)=O)CO[C@@H]1C[C@@H]2O [Taxol, reference compound]
A570 nm/A630 nm [1]: 0.5996 ± 0.0139 | PI (%) [1]: 52.15% | A570 nm/A630 nm [2]: 0.6011 ± 0.0148 | PI (%) [2]: 50.81% | A570 nm/A630 nm (lung cancer cell A549): 0.4269 | PI (%) (lung cancer cell A549): 55.93% | A570 nm/A630 nm (liver cancer cell Hep-G2): 0.3258 | PI (%) (liver cancer cell Hep-G2): 52.42% | A570 nm/A630 nm [3]: 0.4156 ± 0.0287 | A570 nm/A630 nm [4]: 0.4103 ± 0.0287 | PI (%) [4]: 53.39% | A570 nm/A630 nm (human glioma U87): 0.2177 ± 0.0277 | PI (%) (human glioma U87): 68.90% | A570 nm/A630 nm [5]: 0.2114 ± 0.0275 | PI (%) [5]: 73.55% | A570 nm/A630 nm [6]: 0.2387 ± 0.0257 | PI [6]: 82.28%

CCN(CC)CCNC(=O)c1c(C)[nH]c(/C=C2\C(=O)Nc3ccc(F)cc32)c1C [Sunitinib, reference compound]
MI (%) [7]: 82.13% | Migration cell number [7]: 449.0 ± 153.86

CN(Cc1cnc2nc(N)nc(N)c2n1)c1ccc(C(=O)N[C@@H](CCC(=O)O)C(=O)O)cc1 [methotrexate, reference compound]
Weight gain ([8]; 1 mg/kg (positive drug)): 47.32 ± 17.20 g | Clinical score Whole body ([8]; 1 mg/kg (positive drug), full score 8): 1.31 ± 0.17 | Foot swelling degree Left ([8]; 1 mg/kg (positive drug), left hind foot (primary inflammation)): 1.19 ± 0.20 mL | Clinical score Arthritis index ([8]; 1 mg/kg (positive drug), maximum score 16): 2.00 ± 0.54 | Foot swelling degree Right ([8]; 1 mg/kg (positive drug), right foot (secondary inflammation)): 1.22 ± 0.13 mL | therapeutic effect on primary arthritis (primary toe swelling degree) ([8]; methotrexate group, injection every 5 days for 15 days): the best effect

CC(=O)Oc1ccccc1C(=O)O [aspirin, reference compound]
Swelling degree ([9]; 2 h after xylene, mice): 3.12 ± 0.34 mg | PI ([9]; ear swelling vs control): 53.08%
